Residues, ends and D or L forms follow the SMILES beside them.
Legend:
[1] = test system: human melanoma (A2058) cell lines; experiment: Antitumor activity evaluation test (1), cell viability by Cell Counting Kit-8 (WST-8); format: cell-based; details: 48 hours, A2058 versus normal MCF-12F cells
Procedure: (§1) The antitumor activity of the sample peptides synthesized in Test Example 1 was evaluated using human-derived cultured tumor cells as targets.
(§2) Specifically, currently commercially available human melanoma (A2058) cell lines were used as test tumor cells. In addition, a normal human mammary epithelial cell culture line (MCF-12F) was used for comparison. Here, culture solutions of respective cells are as follows. • (1) A2058 cells:
(§3) DMEM culture medium including 2 mM L-glutamine, 0.1 mM of non-essential amino acids, 50 units/mL of penicillin, 50 μg/mL of streptomycin, and 10% fetal bovine serum (FBS) (product, commercially available from Wako Pure Chemical Industries, Ltd.). • (2) MCF-12F cells:
(§4) DMEM/F12 culture medium including 20 ng/mL of recombinant EGF, 10 μg/mL of insulin, 0.5 μg/mL of hydrocortisone, and 10% FBS (product, commercially available from Wako Pure Chemical Industries, Ltd.).
(§5) A2058 cells and MCF-12F cells were cultured and prepared so that the number of cells per well in a 96-well plate was about 5×10^3. An amount of the culture medium in this case was 100 μL per well.
(§6) Next, the 96-well plate was placed in a CO2 incubator and pre-incubated under conditions of 37° C. and 5% CO2 for about 1 day (21 hours to 24 hours).
(§7) Then, peptide-containing test culture mediums for each concentration were prepared so that the concentrations of the sample peptides to be evaluated were 12.5 μM and 25 μM, and supplied to wells (that is, wells after the pre-incubation) in which 90μL of cells to be evaluated were cultured in each well. Then, the 96-well plate was returned to the CO2 incubator and incubated under conditions of 37° C. and 5% CO2 for 48 hours.
(§8) Here, the number of test wells (n) at peptide concentrations in peptide addition test groups was set to 3. Therefore, the value of the result shown in the following table is an average value of the results obtained in three test wells. First, the cell viability (%) was determined as follows.
(§9) After the incubation for 48 hours was completed, the culture medium in each well was replaced with 100 μL of a fresh culture medium containing no peptide, and additionally, 10μL of a cell proliferation measurement reagent “Cell Counting Kit-8” (product, commercially available from Dojindo Molecular Technologies, Inc.) containing a “water-soluble tetrazolium salt (WST-8)” as a coloring reagent was added to each well. Then, the 96-well plate was returned to the CO2 incubator and incubated under conditions of 37° C., and 5% CO2 for 1.5 hours to 2 hours.
(§10) After the incubation was completed, the cell culture solution to which the reagent was added was collected and the cell viability (%) was evaluated according to a colorimetric method in which an absorbance at a wavelength of 450 nm (value corrected by the absorbance at a wavelength of 650 nm: A450-A650) was measured based on the reduction of the tetrazolium salt. Specifically, a measured value (measured absorbance) of a comparative test group in which the above incubation was performed for 48 hours simply in a culture medium containing no peptide was set as a cell viability of 100%, and the cell viability (%) was calculated from the measured absorbance of each test cell line as a relative value.
(§11) Specifically, a value (value multiplied by 100 for convenience) obtained by dividing the cell viability of target tumor cells (here, A2058 cells) when the sample peptides were added at a concentration of 12.5 μM or 25 μM measured as described above by the cell viability of comparative normal cells (here, MCF-12F cells) measured under the same conditions, that is,
(§12) {(A2058 cell viability)/(MCF-12F cell viability)}×100 was calculated as a specific cell viability of the tumor cells, and the test tumor cells selective antitumor activity with respect to normal cells was evaluated using such a specific cell viability as an index.

[2] = as above; format: cell-based, human; details: peptide 25 μM, 48 hours, relative to culture medium containing no peptide = 100%; read-out: A2058 cell viability (survival rate)
Procedure: as §1, §2, §3, §4, §5, §6, §7, §8, §9, §10, §11, §12

Structure (SMILES)	Specific cell viability {(A2058 cell viability)/(MCF-12F cell viability)}×100 ([1]; peptide 12.5 μM)	Specific cell viability {(A2058 cell viability)/(MCF-12F cell viability)}×100 ([1]; peptide 25 μM)	viability [2] [%]
CSCC[C@H](NC(=O)[C@H](C)N)C(=O)N[C@@H](Cc1ccc(O)cc1)C(=O)N[C@@H](CC(C)C)C(=O)N[C@@H](Cc1ccccc1)C(=O)N[C@@H](CC(C)C)C(=O)NCC(=O)N[C@@H](CC(N)=O)C(=O)N[C@@H](CC(C)C)C(=O)N[C@@H](C)C(=O)N[C@@H](C)C(=O)N[C@@H](CO)C(=O)N[C@@H](CC(=O)O)C(=O)N[C@@H](CC(C)C)C(=O)N[C@@H](CC(C)C)C(=O)N[C@@H](C)C(=O)NCC(=O)N[C@H](C(=O)N[C@@H](C)C(=O)N[C@@H](Cc1ccccc1)C(=O)N[C@H](C(=O)N[C@@H](C)C(=O)N[C@@H](CC(N)=O)C(=O)N[C@H](C(=O)N[C@@H](CC(C)C)C(=O)N[C@@H](CC(C)C)C(=O)N[C@@H](CO)C(=O)NCC(=O)N[C@@H](CO)C(=O)N[C@@H](CCCNC(=N)N)C(=O)N[C@@H](CCCCN)C(=O)N[C@@H](CCCCN)C(=O)N[C@@H](CCCNC(=N)N)C(=O)N[C@@H](CCCNC(=N)N)C(=O)N[C@@H](CCC(N)=O)C(=O)N[C@@H](CCCNC(=N)N)C(=O)N[C@@H](CCCNC(=N)N)C(=O)N[C@@H](CCCNC(=N)N)C(N)=O)[C@@H](C)O)C(C)C)C(C)C [Sample 1] (H-AMYLFLGNLAASDLLAGVAFVANTLLSGSRKKRRQRRR-NH2; N-terminus assumed)	114.85	16.67	0.7
CC(C)C[C@H](NC(=O)CNC(=O)[C@H](CCC(=O)O)NC(=O)[C@H](CCCNC(=N)N)NC(=O)[C@H](CC(C)C)NC(=O)[C@H](Cc1ccccc1)NC(=O)[C@@H](N)Cc1c[nH]c2ccccc12)C(=O)N[C@@H](CC(C)C)C(=O)N[C@@H](Cc1ccccc1)C(=O)N[C@H](C(=O)N[C@@H](C)C(=O)N[C@@H](CC(C)C)C(=O)N[C@@H](C)C(=O)N[C@@H](C)C(=O)N[C@@H](CO)C(=O)N[C@H](C(=O)N[C@@H](Cc1ccccc1)C(=O)N[C@@H](CO)C(=O)N[C@@H](CC(C)C)C(=O)N[C@@H](CC(C)C)C(=O)N[C@@H](Cc1ccccc1)C(=O)N[C@@H](CCCNC(=N)N)C(=O)N[C@@H](CCCCN)C(=O)N[C@@H](CCCCN)C(=O)N[C@@H](CCCNC(=N)N)C(=O)N[C@@H](CCCNC(=N)N)C(=O)N[C@@H](CCC(N)=O)C(=O)N[C@@H](CCCNC(=N)N)C(=O)N[C@@H](CCCNC(=N)N)C(=O)N[C@@H](CCCNC(=N)N)C(N)=O)[C@@H](C)O)[C@@H](C)O [Sample 3] (H-WFLREGLLFTALAASTFSLLFRKKRRQRRR-NH2; N-terminus assumed)	68.20	25.41	4.6
CC[C@H](C)[C@H](NC(=O)[C@H](Cc1ccccc1)NC(=O)CNC(=O)[C@H](Cc1ccc(O)cc1)NC(=O)[C@@H](N)C(C)C)C(=O)NCC(=O)N[C@@H](CC(C)C)C(=O)N[C@@H](CS)C(=O)N[C@@H](Cc1c[nH]c2ccccc12)C(=O)N[C@@H](CC(C)C)C(=O)N[C@@H](CC(C)C)C(=O)N[C@@H](C)C(=O)N[C@@H](C)C(=O)N[C@@H](CC(C)C)C(=O)N[C@@H](CC(C)C)C(=O)NCC(=O)N[C@@H](CCSC)C(=O)N[C@@H](CC(C)C)C(=O)N1CCC[C@H]1C(=O)N[C@@H](CC(C)C)C(=O)N[C@@H](CC(C)C)C(=O)N[C@@H](CCCNC(=N)N)C(=O)N[C@@H](CCCCN)C(=O)N[C@@H](CCCCN)C(=O)N[C@@H](CCCNC(=N)N)C(=O)N[C@@H](CCCNC(=N)N)C(=O)N[C@@H](CCC(N)=O)C(=O)N[C@@H](CCCNC(=N)N)C(=O)N[C@@H](CCCNC(=N)N)C(=O)N[C@@H](CCCNC(=N)N)C(N)=O [Sample 4] (H-VYGFIGLCWLLAALLGMLPLLRKKRRQRRR-NH2; N-terminus assumed)	46.80	35.10	5.3
CC[C@H](C)[C@H](NC(=O)[C@H](C)NC(=O)[C@H](CC(C)C)NC(=O)[C@H](CC(C)C)NC(=O)[C@H](CO)NC(=O)[C@H](CC(C)C)NC(=O)[C@@H](NC(=O)[C@H](CO)NC(=O)[C@H](C)NC(=O)[C@@H](NC(=O)[C@H](CC(C)C)NC(=O)[C@H](C)NC(=O)[C@@H](NC(=O)[C@H](Cc1ccccc1)NC(=O)[C@@H](NC(=O)CNC(=O)CNC(=O)[C@@H](N)CCC(=O)O)C(C)C)C(C)C)[C@@H](C)O)C(C)C)C(=O)N[C@@H](C)C(=O)N[C@@H](CC(C)C)C(=O)N[C@@H](CCC(=O)O)C(=O)N[C@@H](CCCNC(=N)N)C(=O)N[C@@H](CCCCN)C(=O)N[C@@H](CCCCN)C(=O)N[C@@H](CCCNC(=N)N)C(=O)N[C@@H](CCCNC(=N)N)C(=O)N[C@@H](CCC(N)=O)C(=O)N[C@@H](CCCNC(=N)N)C(=O)N[C@@H](CCCNC(=N)N)C(=O)N[C@@H](CCCNC(=N)N)C(N)=O [Sample 5] (H-EGGVFVALTASVLSLLAIALERKKRRQRRR-NH2; N-terminus assumed)	88.08	10.09	5.5

Reference: patent US20220411480A1, “ANTITUMOR PEPTIDE AND USE THEREOF” (TOAGOSEI CO., LTD, priority 2018, published 2022)
